In patent publication US20080056993A1, “Compositions, Methods and Kits Using Adenosine and Inosine in Combination for Diagnosis and Treatment” (ADENOBIO N.V., priority 2006, published 2008):
Values joined by “and” are separate entries in the source; they are usually repeats but may differ in a detail not shown here. Equal entries are not always repeated.

Assays:
[1] = Maximal solubility in nonpyrogenic fluid suitable for parenteral infusion; assay type: physicochemical; settings: adenosine and inosine combined in a nonpyrogenic fluid suitable for parenteral infusion
Protocol: Combined in a nonpyrogenic, fluid suitable for parenteral infusion, maximal adenosine solubility is about 4 mg/ml and that of inosine 20 mg/ml. Concentrations approaching one or both of these maxima are convenient for unit dosage forms intended for long infusion times, since high concentrations of the nucleoside actives reduce the volume required to be infused. Typical embodiments include, for example, 250 ml containers (vials, etc.) containing 1,000 mg of adenosine with 100 mg, 1,000 mg, 2,000 mg, or even 3,000 mg, 4,000 mg, 5,000 mg, even 6,000 mg of inosine, with intermediate inosine amounts permissible.

[2] = test system: human patients; settings: cited from earlier work
[3] = test system: male Wistar rats; test: Reperfusion injury after myocardial ischemia in the rat, repeated with 45 minute ischemia; assay type: in vivo; settings: day 30 post ischemia, preliminary
Protocol: The experiment was repeated with 45 minute period of ischemia, and with the addition of a further BIDOSINE experimental group. The BIDOSINE composition for this additional group comprised adenosine, administered at 0.01 mg/kg/min ( 1/10 its single agent maximally effective dose) with inosine 0.20 mg/kg/min, for an A:I weight ratio of 1:20. Preliminary results (n=5 per group) of this ongoing study are given in Table 5, below, reporting day 30 post ischemia results.

[4] = test system: anaesthetized rats; test: Carotid blood flow (CaBF) in anaesthetized rats, continuous i.v. infusion; assay type: in vivo, rat; settings: for increase in CaBF, percentage variation from baseline: 6 min continuous i.v. infusion, adenosine 0.05 mg/kg/min, inosine 0.2 mg/kg/min, alone or combined (A:I 1:4), Mean±SEM, n=6; for effect of inosine alone on CaBF: 5 min i.v. infusion
Protocol: The study was conducted on 7 week old male Wistar rats weighing 250-300 g. Rats were anaesthetized with Inactin 100 mg/kg i.p. Inactin was preferred to other anaesthetics because of its moderate impact on blood pressure. Heparin-filled (100 IU/ml in saline) catheters were introduced into the left common carotid artery and into the left jugular vein for measurement of blood pressure and drug administration respectively. A flow probe was inserted around the right carotid artery for measurement of carotid blood flow (CaBF).
In a first series of experiments, adenosine was administered as a single agent to identify the dose providing maximal increase in carotid arterial blood flow (“adenosine max”). In this experiment, various concentrations of adenosine were infused continuously through the jugular vein catheter for 5 minutes, with concurrent measurement of carotid arterial blood flow.
A second series of experiments was performed to assess whether inosine could potentiate the effects on CaBF of a continuous intravenous infusion of adenosine at half adenosine max.
In each experiment, the effect on CaBF of (i) adenosine as a single agent, infused continuously for five minutes at adenosine max (0.1 mg/kg/min), (ii) adenosine as single agent infused continuously for five minutes at half adenosine max (0.05 mg/kg/min), and (iii) a composition containing a fixed dose of adenosine at half adenosine max (0.05 mg/kg/min) combined with inosine infused continuously for five minutes, was assessed. In separate experiments, inosine was included in the combined (“BIDOSINE”) composition in amounts required to achieve infusion at 0.1 mg/kg/min (A:I weight ratio of 1:2, FIG. 2A), 0.15 mg/kg/min (A:I weight ratio of 1:3, FIG. 2B), 0.2 mg/kg/min (A:I weight ratio of 1:4, FIG. 2C), and 0.25 mg/kg/min (A:I weight ratio of 1:5, FIG. 2D).

[5] = test system: rat model of spinal cord ischemia; test: Photothrombotic model of spinal cord ischemia in rats, behavioral studies; assay type: in vivo
Protocol: BIDOSINE administration was compared to adenosine (0.1 mg/kg/min), administered by continuous i.v. infusion from thirty to sixty minutes after the injury (n=13 in each group). As controls, a group of animals (n=11) received a 60-min IV perfusion of saline solution starting 30 min after the injury. The potential neuroprotective effect of the compound was evaluated by performing various behavioral studies. In these experiments, the photothrombotic model of ischemia was chosen over the occlusion model (aortic clamp), since it better reproduces the pathophysiology of an ischemic insult. The photothrombotic model has the advantages of (i) causing a […] processes that more perfectly mimics the pathophysiological conditions observed in clinics, and (ii) affecting a controlled volume of nervous tissue. Moreover, the location of the lesion can be restricted to precise regions (three to four […]). The injury is created using a beam of a xenon lamp conveyed by fiberoptics on the selected vertebral site. The irradiation is performed over the translucent dorsal surface of the vertebral laminae. The green light (560 nm) induces the excitation of the previously injected dye (Rose Bengal) present in the spinal cord microvasculature. […]

[6] = cited from earlier work
[7] = test system: male Wistar rats; test: Reperfusion injury after left myocardial ischemia (35 min LAD occlusion) in the rat, echocardiography; assay type: in vivo; set-up: EDV (end-diastolic volume), single animals / ESV (end-systolic volume), single animals / EDV (end-diastolic volume), group mean (unlabelled last line of group) / ESV (end-systolic volume), group mean (unlabelled last line of group): unit not given here; settings: for EDV (end-diastolic volume), single animals / EF (ejection fraction), single animals / ESV (end-systolic volume), single animals: 60 min i.v. infusion after 35 min occlusion
[8] = test system: sheep; test: Invasive cardiac hemodynamic measurements in experimental sheep model; assay type: in vivo
From the text: An experimental sheep model, developed for invasive hemodynamic measurements under various conditions, was used to study the potentiating and synergistic effects of inosine on continuous adenosine infusion. The model is described in Tanoue et al., “Ischemic preconditioning reduces unloaded myocardial oxygen consumption in an in-vivo sheep model,” Cardiovascular Research 55: 633-641 (2002) and Xia et al., “Remote preconditioning lessens the deterioration of pulmonary function after repeated coronary artery occlusion and reperfusion,” Canadian Journal of Anesthesia 50: 481-488 (2003), the disclosures of which are incorporated herein by reference in their entireties. A total of twelve animals were studied. Briefly, the sheep were premedicated, anesthetized, intubated, and ventilated with positive pressure ventilation. Electrocardiogram (ECG) was continuously followed. The carotid artery was surgically denuded to place an arterial line for arterial blood pressure (ABP) measurement. Denuding of the jugular vein was performed to place a double or triple lumen central venous line for measurement of central venous pressure (CVP) and fluid and drug administration. A small left thoracotomy was made in the third or fourth intercostal space and the heart suspended in a pericardial cradle. A flow probe (transonic probe) was placed around the pulmonary artery and around the left circumflex coronary artery. A catheter was inserted in the pulmonary artery to determine pulmonary arterial pressure. In addition, 9 animals received a conductance catheter which was positioned in the left and right ventricle and preload-afterload variations were made by occlusion and/or constriction of the caval veins and/or pulmonary artery and/or aorta in order to study myocardial contractility. Regional blood flow measurements were also performed using a colored microsphere injection technique. Each animal served as its own control. The sequence of measurements was always the same: 1) under baseline conditions; 2) under adenosine; 3) 15 minutes stabilization, then new measurements under baseline conditions; 4) measurements under bidosine. From the first three animal experiments, it was determined that adenosine 200 μg/kg/min was the optimal single agent adenosine dose, i.e., the dose ensuring the highest coronary flow (adenosine max). Therefore, all further experiments compared this dose to the BIDOSINE formulation containing 100 μg/kg/min (that is, half adenosine max) adenosine+500 μg/kg/min inosine (A:I ratio of 1:5).

[9] = test system: sheep; test: Regional myocardial blood flow by colored microsphere technique in sheep; assay type: in vivo; settings: mean of 9 experiments, after 5 minutes of adenosine or BIDOSINE
From the text: Regional blood flows, as well as potential changes in the distribution of coronary flow into different parts of the myocardium, were also studied. This was done by using a colored microsphere technique, essentially as described in Muller et al., “Developmental changes in cerebral autoregulatory capacity in the fetal sheep parietal cortex,” J Physiol. 539(Pt 3):957-67 (2002); Miller et al., “Physiological evidence for arteriovenous anastomoses in the uterine circulation of late-pregnant ewes,” Clin. Exp. Pharmacol. Physiol. 25(2):92-8 (1998); Herijgers et al., “Changes in organ perfusion after brain death in the rat and its relation to circulating catecholamines,” Transplantation 62: 330-335 (1996); and Wouters et al., “Ischemic event characteristics determine the extent of myocardial stunning in conscious dogs,” Basic Res. Cardiol. 91(2):140-6 (1996), the disclosures of which are incorporated herein by reference in their entireties. Briefly, colored microspheres were injected at baseline, and after 5 minutes of adenosine or BIDOSINE administration. At necropsy, tissue was digested and the number of colored microspheres per gram of wet weight in a tissue sample determined. By comparing these numbers with the number of microspheres in a reference sample drawn from the aorta at a predetermined rate, we could quantify the absolute flow rate to the tissue sample at the moment when the microspheres were injected. The statistical analysis was performed by the same methodology as for the hemodynamic parameters. Values are expressed in ml/min/g tissue (wet weight). LV=left ventricle; RV=right ventricle; endo=endocardial half; epi=epicardial half. As in Table 2, the numbers reflect the sequence of experimental conditions, as follows: 1) under baseline conditions; 2) under adenosine; 3) 15 minutes stabilization, then new measurements under baseline conditions; 4) measurements under bidosine.

[10] = adenosine 200 μg/kg/min or BIDOSINE (adenosine 100 + inosine 500 μg/kg/min)
[11] = adenosine 200 μg/kg/min or BIDOSINE (adenosine 100 + inosine 500 μg/kg/min), listed as Adenosine

Nc1ncnc2c1ncn2[C@@H]1O[C@H](CO)[C@@H](O)[C@H]1O [adenosine]
solubility [1]: ~4 mg/mL
side effects ([2]; continuous intravenous infusion 140 μg/kg/min for 6 minutes): frequent side effects
adverse reactions ([2]; dosage of 70 μg/kg/min or less): very few and of mild intensity
left ventricular EF (LVEF) [3]: 45%
EDV ([3]; n=5 per group): 0.47
ESV ([3]; n=5 per group): 0.26
LVEF ([3]; n=5 per group): 0.45
adenosine dose providing maximal CaBF as a single agent (adenosine max) ([4]; 5 min continuous i.v. infusion, 0.01-1 mg/kg/min tested): 0.1 mg/kg/min
increase in CaBF, percentage variation from baseline [4]: 7±4%
behavioral recovery (motor, sensory and reflex scores), all tested functions ([5]; BIDOSINE 1:5 (adenosine 0.05 + inosine 0.25 mg/kg/min) or adenosine 0.1 mg/kg/min i.v. after injury, follow-up to day 10): best efficacy until day 4
gross and fine motor functional outcomes (open field, inclined plane, grid navigation) ([5]; compared to saline controls, to day 10, two way ANOVA p<0.001): Statistically significant improvements over control
half life [6]: several seconds
EDV (end-diastolic volume), group mean (unlabelled last line of group) ([7]; Post-operative day 2): 0.40
EF (ejection fraction), group mean (unlabelled last line of group) ([7]; Post-operative day 2): 0.60
ESV (end-systolic volume), group mean (unlabelled last line of group) ([7]; Post-operative day 2): 0.16
EDV (end-diastolic volume), single animals ([7]; Post-operative day 2): 0.41 and 0.35 and 0.37 and 0.48
EF (ejection fraction), single animals ([7]; Post-operative day 2): 0.67 and 0.64 and 0.60 and 0.49
ESV (end-systolic volume), single animals ([7]; Post-operative day 2): 0.14 and 0.13 and 0.15 and 0.24
EDV (end-diastolic volume), group mean (unlabelled last line of group) ([7]; Post-operative day 30): 0.38
EF (ejection fraction), group mean (unlabelled last line of group) ([7]; Post-operative day 30): 0.59
ESV (end-systolic volume), group mean (unlabelled last line of group) ([7]; Post-operative day 30): 0.20
EDV (end-diastolic volume), single animals ([7]; Post-operative day 30): 0.44 and 0.42 and 0.33 and 0.36
EF (ejection fraction), single animals ([7]; Post-operative day 30): 0.61 and 0.32 and 0.65 and 0.44
ESV (end-systolic volume), single animals ([7]; Post-operative day 30): 0.17 and 0.29 and 0.12 and 0.20
ejection fraction ([7]; day 30, adenosine 0.1 mg/kg/min or adenosine 0.05 + inosine 0.25 mg/kg/min): 59%
Cardiac output (co), mean [8, 10]: 4943
Central venous pressure (CVP), mean [8, 10]: 9.4875
Coronary flow (cf), mean [8, 10]: 129.55
Heart rate (HR), mean [8, 10]: 90.6375
Left ventricular dP/dtmax (contractility) (dpmax), mean [8, 10]: 1077.714
Left ventricular dP/dtmin (relaxation) (dpmin), mean [8, 10]: worsened significantly more
Mean arterial blood pressure (ABPm), mean [8, 10]: decreased significantly more
Mean pulmonary arterial pressure (pupm), mean [8, 10]: 16.425
Systolic left ventricular pressure (LVPsys), mean [8, 10]: decreased significantly more
Left ventricular dP/dtmin (relaxation) (dpmin), mean [8, 11]: −821.286
Mean arterial blood pressure (ABPm), mean [8, 11]: 43.2625
Systolic left ventricular pressure (LVPsys), mean [8, 11]: 59.35
left ventricular relaxation constant (Tau) compared with baseline ([8]; adenosine at adenosine max or BIDOSINE A:I 1:5, ANOVA p=0.001): significantly shorter
coronary blood flow ([8]; continuous i.v. infusion, adenosine 200 μg/kg/min or BIDOSINE (100 + 500 μg/kg/min)): 129.5 cms/sec
optimal single agent adenosine dose, ensuring the highest coronary flow (adenosine max) ([8]; from the first three animal experiments): 200 µg/kg/min
Regional blood flow, left ventricle endocardial half (Lvendo), mean [9]: 1.763 ml/min/g tissue (wet weight)
Regional blood flow, left ventricle epicardial half (Lvepi), mean [9]: 2.039 ml/min/g tissue (wet weight)
Regional blood flow, right ventricle endocardial half (RVendo), mean [9]: 2.227 ml/min/g tissue (wet weight)
Regional blood flow, right ventricle epicardial half (RVepi), mean [9]: 1.728 ml/min/g tissue (wet weight)
Regional blood flow, left ventricle endocardial half (Lvendo), mean ([9]; listed as Adenosine): 1.764 ml/min/g tissue (wet weight)

OC[C@H]1O[C@@H](n2cnc3c(O)ncnc32)[C@H](O)[C@@H]1O [inosine]
solubility [1]: 20 mg/mL
increase in CaBF, percentage variation from baseline [4]: 4±2%
effect of inosine alone on CaBF ([4]; inosine 0.3 mg/kg/min): No response
effect of inosine alone on CaBF ([4]; inosine 1 mg/kg/min (10 times adenosine max)): Modest decreases in CaBF
effect of inosine alone on CaBF ([4]; inosine between 1 to 10 mg/kg/min): sharp slump and dose-dependent decrease in CaBF
